Source: patent US20180311161A1, “AMPHIPHILIC POLYMERS ENCAPSULATING THERAPEUTICALLY ACTIVE AGENTS” (TECHNION RESEARCH & DEVELOPMENT FOUNDATION LIMITED, priority 2015, published 2018)

Key:
[1] = Encapsulation of efavirenz in polymeric micelles (apparent solubility, solubility factor); assay type: physicochemical; details: 37° C.
Method: The encapsulation capacity of the micelles was studied with the antiretroviral efavirenz. For this, 1%, 3%, 5% and 10% w/v CS-N52 and 1% CS-N74 polymeric micelles were prepared and 2-10 mg of drug per mL of micellar suspension added. The suspension was magnetically stirred at 37° C. (48 h), filtered (1.2 μm, Minisart® NML cellulose acetate, Sartorius AG, Goettingen, Germany) to remove insoluble drug, the filtrate diluted (1/10) in distilled water and 10 mL extracted with dichloromethane (3×20 mL). The organic solution was evaporated under vacuum, re-dissolved in methanol and the absorbance measured in microplate spectrophotometer (λ=248 nm). Then, the EFV concentration was calculated by interpolation in a calibration curve in the range of 0.02-80 μg/mL (R^2>0.9999). Finally, the solubility factor (fs) was determined according to
where Sa is the apparent solubility of active agent (herein: efavirenz) in the polymeric micelles and Si is the intrinsic solubility of the active agent (efavirenz) in a polymer-free medium (7 μg/mL), at 37° C. Measurements were performed in triplicate and the results are expressed as the mean±S.D. Efavirenz-loaded micelles before and after ionotropic crosslinking were characterized for Dh, PDI and Z-potential by DLS (see above).

[2] = system: Caco2 cell line; assay: In vitro cell compatibility, MTT method; assay type: cell-based; details: crosslinker, versus only-medium control (100% viability)
Method: Since these polymeric micelles are envisioned for the administration by mucosal routes, including the oral one, their cell compatibility before and after corona-crosslinking was evaluated in a Caco2 cell line (ATCC® HTB-37™) obtained from American Type Culture Collection (ATCC®, Manassas, Va., USA).
In exemplary embodiments, cells were cultured in Eagle's Minimum Essential Medium (EMEM, Life Technologies Corp., Carlsbad, Calif., USA) supplemented with L-glutamine, 10% heat-inactivated fetal bovine serum (FBS, Sigma-Aldrich) and penicillin/streptomycin (5 mL of a commercial mixture of 100 U/mL of penicillin+100 μg/mL streptomycin per 500 mL medium, Sigma-Aldrich) and maintained at 37° C. in a humidified 5% CO2 atmosphere and split 1:10 into fresh media every three-four days. Cells were harvested by trypsinization (trypsin-EDTA 0.25%, Sigma-Aldrich) and the number of live cells was quantified the trypan blue (1%, Sigma-Aldrich) exclusion assay and a Neubauer chamber. To determine the compatibility of the polymeric micelles (expressed as percentage with respect to a blank incubated with culture medium), cells were cultured in 96-well plates (5×10^3 cells/well) and allowed to attach over 72 h. The medium in each well was replaced by different samples (concentration between 0.1%, 0.3% and 0.5% in PBS+medium) and cells incubated over 4 and 24 h. […]

SMILES | Si (intrinsic solubility in a polymer-free medium) [1] [µg/mL] | viability of Caco2 cells (MTT) [2]
O=C1Nc2ccc(Cl)cc2[C@@](C#CC2CC2)(C(F)(F)F)O1 [efavirenz] | 7 | –
O=P(O)(O)OP(=O)(O)OP(=O)(O)O [TPP, sodium tripolyphosphate] | – | did not affect the viability of the cells
